The results in this text go back to article PMC9268515, “UGT1A1 and UGT1A9 Are Responsible for Phase II Metabolism of Tectorigenin and Irigenin In Vitro” (Molecules, 2022).

This data set has as its target T1, UGT2B17 (Homo sapiens, UniProt O75795).
T1 construct: purchased BD Biosciences (Woburn, MA, USA)
T1 sequence (O75795 24-530): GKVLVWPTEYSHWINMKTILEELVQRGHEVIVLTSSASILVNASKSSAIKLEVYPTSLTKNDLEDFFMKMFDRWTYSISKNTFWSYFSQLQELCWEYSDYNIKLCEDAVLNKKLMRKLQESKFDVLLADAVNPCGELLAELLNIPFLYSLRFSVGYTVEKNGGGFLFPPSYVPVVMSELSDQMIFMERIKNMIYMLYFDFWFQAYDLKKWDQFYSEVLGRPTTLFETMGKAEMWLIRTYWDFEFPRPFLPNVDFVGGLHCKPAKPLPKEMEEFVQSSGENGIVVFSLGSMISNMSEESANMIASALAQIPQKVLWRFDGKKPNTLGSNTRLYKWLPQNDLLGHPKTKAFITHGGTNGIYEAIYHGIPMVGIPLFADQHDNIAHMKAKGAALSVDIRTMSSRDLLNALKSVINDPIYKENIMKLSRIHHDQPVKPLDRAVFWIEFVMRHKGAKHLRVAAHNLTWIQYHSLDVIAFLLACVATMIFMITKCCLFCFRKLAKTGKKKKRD
Description: Recombinant UGT reaction screening, UGT2B17. In kind it is in vitro ADME. The procedure:
UGT reaction screening of tectorigenin and irigenin was conducted using nine commercially available human UGTs (UGT1A1/1A3/1A4/1A6/1A9/2B4/2B7/2B15/2B17). Furthermore, we studied the enzymatic kinetic characteristics of tectorigenin and irigenin using UGT1A1 and UGT1A9. Six concentrations of tectorigenin and irigenin (1, 3, 10, 30, 100, and 300 μM) were incubated in triplicate in order to obtain the enzyme kinetic characteristics of tectorigenin and irigenin glucuronide.

As to `COc1c(O)cc2occ(-c3ccc(O)cc3)c(=O)c2c1O` [Tectorigenin, 5,7,4′-trihydroxyl-6-methoxyl isoflavone], the “Activity in glucuronidation of tectorigenin” value is given as “none”.
